# Laboratory results: patent publication US9475817B2 (BRISTOL-MYERS SQUIBB COMPANY, priority 2012, dated 2016)
# Tests used:
# CK1δ = CK1δ (Homo sapiens (Human), UniProt P48730); test: CK1δ kinase assay (Caliper LabChip, fluoresceinated peptide substrate); type: biochemical; conditions: 200 pM CK1δ, 50 μM ATP, 1.5 μM peptide substrate, 22 hours room temperature
# Experimental: (§1) CK1ε and CK1δ Kinase Assays
# (§2) The kinase assay was performed in V-bottom 384-well plates. […] The reaction was incubated at room temperature for 22 hours and terminated by adding 45 μl of 35 mM EDTA to each sample. […] Compounds were dissolved at 10 mM in dimethylsulfoxide (DMSO) and evaluated at eleven concentrations. IC50 values were derived by non-linear regression analysis.
# CK1ε = CK1ε (Homo sapiens (Human), UniProt P49674); test: CK1ε kinase assay (Caliper LabChip, fluoresceinated peptide substrate); type: biochemical; conditions: 200 pM CK1ε, 50 μM ATP, 1.5 μM peptide substrate, 22 hours room temperature
# Sequence of CK1ε (P49674 whole entry): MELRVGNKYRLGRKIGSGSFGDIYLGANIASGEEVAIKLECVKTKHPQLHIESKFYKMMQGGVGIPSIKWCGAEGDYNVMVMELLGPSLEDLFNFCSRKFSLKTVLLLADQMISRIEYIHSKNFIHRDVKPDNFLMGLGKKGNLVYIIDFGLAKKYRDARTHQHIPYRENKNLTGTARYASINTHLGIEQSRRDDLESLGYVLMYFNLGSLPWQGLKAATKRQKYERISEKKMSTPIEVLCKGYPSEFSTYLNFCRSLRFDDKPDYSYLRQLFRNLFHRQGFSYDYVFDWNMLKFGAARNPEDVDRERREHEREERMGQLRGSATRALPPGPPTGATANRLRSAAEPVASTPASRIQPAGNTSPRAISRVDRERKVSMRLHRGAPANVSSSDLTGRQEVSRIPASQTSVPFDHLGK
# Experimental: as §1, §2
# Sequence of CK1δ (P48730 whole entry): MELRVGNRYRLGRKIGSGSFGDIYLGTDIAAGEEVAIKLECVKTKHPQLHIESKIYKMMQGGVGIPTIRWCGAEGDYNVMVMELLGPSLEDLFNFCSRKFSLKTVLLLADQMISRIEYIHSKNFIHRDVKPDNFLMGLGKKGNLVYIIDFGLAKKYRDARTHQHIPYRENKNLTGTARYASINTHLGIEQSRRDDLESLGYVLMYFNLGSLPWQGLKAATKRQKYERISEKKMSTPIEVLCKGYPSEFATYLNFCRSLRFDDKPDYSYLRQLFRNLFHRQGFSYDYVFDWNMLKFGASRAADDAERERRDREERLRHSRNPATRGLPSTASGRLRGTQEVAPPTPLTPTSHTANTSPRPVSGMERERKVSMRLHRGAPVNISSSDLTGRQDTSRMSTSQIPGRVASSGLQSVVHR
Compound,IC50 (CK1δ) [nM],IC50 (CK1ε) [nM]
"Cn1nc(-c2ccc(F)cc2)c(-c2ccc3nc(NC(=O)c4ccnc(N5CCOCC5)c4)cn3n2)c1C1CCNCC1 [Compound 160, N-(6-(3-(4-Fluorophenyl)-1-methyl-5-(piperidin-4-yl)-1H-pyrazol-4-yl)imidazo[1,2-b]pyridazin-2-yl)-2-morpholinoisonicotinamide]",1.5,1
"Cn1nc(-c2ccc(F)cc2)c(-c2ccc3nc(NC(=O)c4ccnc(N5CCOCC5)c4)cn3n2)c1C1CCN(CCC(F)(F)F)CC1 [Compound 161, N-(6-(3-(4-Fluorophenyl)-1-methyl-5-(1-(3,3,3-trifluoropropyl)piperidin-4-yl)-1H-pyrazol-4-yl)imidazo[1,2-b]pyridazin-2-yl)-2-morpholinoisonicotinamide]",1.7,22.9
"CN1CCC(c2c(-c3ccc4nc(NC(=O)c5ccncc5)cn4n3)c(-c3ccc(F)cc3)nn2C)CC1 [Compound 165, N-(6-(3-(4-Fluorophenyl)-1-methyl-5-(1-methylpiperidin-4-yl)-1H-pyrazol-4-yl)imidazo[1,2-b]pyridazin-2-yl)isonicotinamide]",2.7,5
"Cn1nc(-c2ccc(F)cc2)c(-c2ccc3nc(NC(=O)c4ccncc4)cn3n2)c1C1CCN(C2CC2)CC1 [Compound 166, N-(6-(5-(1-cyclopropylpiperidin-4-yl)-3-(4-fluorophenyl)-1-methyl-1H-pyrazol-4-yl)imidazo[1,2-b]pyridazin-2-yl)isonicotinamide]",1.4,1.9
"Cn1nc(-c2ccc(F)cc2)c(-c2ccc3nc(NC(=O)c4ccncc4)cn3n2)c1C1CCN(C2CCOCC2)CC1 [Compound 167, N-(6-(3-(4-fluorophenyl)-1-methyl-5-(1-(tetrahydro-2H-pyran-4-yl)piperidin-4-yl)-1H-pyrazol-4-yl)imidazo[1,2-b]pyridazin-2-yl)isonicotinamide]",2.4,7.7
"Cn1nc(-c2ccc(F)cc2)c(-c2ccc3nc(NC(=O)c4ccncc4)cn3n2)c1C1CCN(CCO)CC1 [Compound 168, N-(6-(3-(4-fluorophenyl)-5-(1-(2-hydroxyethyl)piperidin-4-yl)-1-methyl-1H-pyrazol-4-yl)imidazo[1,2-b]pyridazin-2-yl)isonicotinamide]",1.3,1.5
"Cn1nc(-c2ccc(F)cc2)c(-c2ccc3nc(NC(=O)c4ccncc4)cn3n2)c1C1CCN(Cc2ccon2)CC1 [Compound 169, N-(6-(3-(4-fluorophenyl)-5-(1-(isoxazol-3-ylmethyl)piperidin-4-yl)-1-methyl-1H-pyrazol-4-yl)imidazo[1,2-b]pyridazin-2-yl)isonicotinamide]",1.4,0.8
"Cn1nc(-c2ccc(F)cc2)c(-c2ccc3nc(NC(=O)c4ccncc4)cn3n2)c1C1CCN(Cc2cc[nH]n2)CC1 [Compound 170, N-(6-(5-(1-((1H-pyrazol-3-yl)methyl)piperidin-4-yl)-3-(4-fluorophenyl)-1-methyl-1H-pyrazol-4-yl)imidazo[1,2-b]pyridazin-2-yl) isonicotinamide]",2.6,7.4

# Now those with a lower IC50 (CK1δ), led by results:
IC50 (CK1δ) [nM],IC50 (CK1ε) [nM],Compound
0.9,3.3,"Cn1nc(-c2ccc(F)cc2)c(-c2ccc3nc(NC(=O)c4ccncc4)cn3n2)c1C1CCNCC1 [Compound 164, N-(6-(3-(4-Fluorophenyl)-1-methyl-5-(piperidin-4-yl)-1H-pyrazol-4-yl)imidazo[1,2-b]pyridazin-2-yl)isonicotinamide]"
0.5,17.5,"Cn1nc(-c2ccc(F)cc2)c(-c2ccc3nc(NC(=O)c4ccnc(N5CCOCC5)c4)cn3n2)c1C1CCN(CCCF)CC1 [Compound 162, N-(6-(3-(4-Fluorophenyl)-5-(1-(3-fluoropropyl)piperidin-4-yl)-1-methyl-1H-pyrazol-4-yl)imidazo[1,2-b]pyridazin-2-yl)-2-morpholinoisonicotinamide]"
0.4,2.6,"Cn1nc(-c2ccc(F)cc2)c(-c2ccc3nc(NC(=O)c4ccnc(F)c4)cn3n2)c1C1CCN(CCC#N)CC1 [Compound 156, N-(6-(5-(1-(2-Cyanoethyl)piperidin-4-yl)-3-(4-fluorophenyl)-1-methyl-1H-pyrazol-4-yl)imidazo[1,2-b]pyridazin-2-yl)-2-fluoroisonicotinamide]"
0.4,1.4,"Cn1nc(-c2ccc(F)cc2)c(-c2ccc3nc(NC(=O)c4ccnc(F)c4)cn3n2)c1C1CCN(C[C@H](O)C(F)(F)F)CC1 [Compound 159, (S)-2-Fluoro-N-(6-(3-(4-fluorophenyl)-1-methyl-5-(1-(3,3,3-trifluoro-2-hydroxypropyl)piperidin-4-yl)-1H-pyrazol-4-yl)imidazo[1,2-b]pyridazin-2-yl)isonicotinamide]"
0.4,0.6,"Cn1nc(-c2ccc(F)cc2)c(-c2ccc3nc(NC(=O)c4ccnc(N5CCOCC5)c4)cn3n2)c1C1CCN(CC(N)=O)CC1 [Compound 163, N-(6-(5-(1-(2-Amino-2-oxoethyl)piperidin-4-yl)-3-(4-fluorophenyl)-1-methyl-1H-pyrazol-4-yl)imidazo[1,2-b]pyridazin-2-yl)-2-morpholinoisonicotinamide]"
0.3,2.7,"COCC(=O)N1CCC(c2c(-c3ccc4nc(NC(=O)c5ccnc(F)c5)cn4n3)c(-c3ccc(F)cc3)nn2C)CC1 [Compound 152, 2-fluoro-N-(6-(3-(4-fluorophenyl)-5-(1-(2-methoxyacetyl)piperidin-4-yl)-1-methyl-1H-pyrazol-4-yl)imidazo[1,2-b]pyridazin-2-yl) isonicotinamide]"
0.3,2.2,"Cn1nc(-c2ccc(F)cc2)c(-c2ccc3nc(NC(=O)c4ccnc(F)c4)cn3n2)c1C1CCN(C(=O)c2ccon2)CC1 [Compound 153, 2-fluoro-N-(6-(3-(4-fluorophenyl)-5-(1-(isoxazole-3-carbonyl)piperidin-4-yl)-1-methyl-1H-pyrazol-4-yl)imidazo[1,2-b]pyridazin-2-yl)isonicotinamide]"
0.3,0.3,"Cn1nc(-c2ccc(F)cc2)c(-c2ccc3nc(NC(=O)c4ccnc(F)c4)cn3n2)c1C1CCN(C(=O)c2cncs2)CC1 [Compound 154, 2-fluoro-N-(6-(3-(4-fluorophenyl)-1-methyl-5-(1-(thiazole-5-carbonyl)piperidin-4-yl)-1H-pyrazol-4-yl)imidazo[1,2-b]pyridazin-2-yl)isonicotinamide]"
0.3,1.3,"Cn1nc(-c2ccc(F)cc2)c(-c2ccc3nc(NC(=O)c4ccnc(F)c4)cn3n2)c1C1CCN(CC(N)=O)CC1 [Compound 157, N-(6-(5-(1-(2-Amino-2-oxoethyl)piperidin-4-yl)-3-(4-fluorophenyl)-1-methyl-1H-pyrazol-4-yl)imidazo[1,2-b]pyridazin-2-yl)-2-fluoroisonicotinamide]"
0.2,0.3,"Cn1nc(-c2ccc(F)cc2)c(-c2ccc3nc(NC(=O)c4ccnc(F)c4)cn3n2)c1C1CCN(C[C@@H](O)C(F)(F)F)CC1 [Compound 158, (R)-2-Fluoro-N-(6-(3-(4-fluorophenyl)-1-methyl-5-(1-(3,3,3-trifluoro-2-hydroxypropyl)piperidin-4-yl)-1H-pyrazol-4-yl)imidazo[1,2-b]pyridazin-2-yl)isonicotinamide]"
